Where no end group is shown, it is not given here.
Tests used:
[1] = target: T1, human Neuropeptide Y receptor type 2 (Homo sapiens, UniProt P49146); test: melanophore assay, potency at the human Neuropeptide Y receptor type 2; type: cell-based; details: read-out: hNPY Y2 pEC50 (converted)
T1 construct: expressed in transfected cells; host or cells: melanophores; own knowledge: in the cited Jayawickreme protocol these are Xenopus laevis melanophores transfected with the receptor
T1 sequence (P49146 1-381): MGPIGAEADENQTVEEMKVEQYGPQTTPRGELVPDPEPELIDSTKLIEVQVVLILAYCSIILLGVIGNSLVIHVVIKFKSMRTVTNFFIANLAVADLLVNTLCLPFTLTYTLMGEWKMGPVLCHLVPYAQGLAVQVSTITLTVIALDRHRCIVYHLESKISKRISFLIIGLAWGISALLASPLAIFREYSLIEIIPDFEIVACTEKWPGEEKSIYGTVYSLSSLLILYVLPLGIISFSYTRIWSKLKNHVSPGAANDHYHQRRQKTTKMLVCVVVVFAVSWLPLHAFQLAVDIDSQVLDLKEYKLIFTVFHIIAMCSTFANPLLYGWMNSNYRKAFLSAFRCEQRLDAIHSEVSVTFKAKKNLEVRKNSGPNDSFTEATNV

[2] = cumulative food intake, lean mice (Model A), BioDaQ system; type: in vivo; details: lean C57BL/6 mice, 1 mg/kg subcutaneously, cumulative food intake after 6 h, relative to vehicle controls
Protocol: Cumulative food intake after 6 h was determined for the PYY analogs in either lean (Model A) or diet-induced obese (DIO) (Model B) C57BL/6 mice in a BioDaQ system for continuous monitoring of food intake (Research Diets Inc., New Brunswick, N.J.). […] Mice were placed singly into the BioDaQ cages and acclimatized for a minimum of 6 days and were allowed ad libitum access to food and water. Approximately 1 hour prior to lights-out, animals were dosed subcutaneously with either vehicle (20 mM Acetate buffer, pH 4.9 or 20% DMSO in water) or analogs dissolved in vehicle (1 mg/kg) (8 animals per group). Once all animals have been dosed, feeder gates were opened providing ad-libitum access to food. Continuous food intake was monitored and collected for 15 hours. […] P-values<0.05 were considered to indicate a significant difference between treatment groups.

| Compound | EC50 [1] | % change in food intake vs vehicle, model A [2] |
| --- | --- | --- |
| CC(C)C[C@H](NC(=O)[C@H](CO)NC(=O)[C@H](C)NC(=O)[C@H](Cc1ccc(O)cc1)NC(=O)[C@H](Cc1ccc(O)cc1)NC(=O)[C@H](CCCNC(=N)N)NC(=O)[C@H](CC(N)=O)NC(=O)[C@H](CC(C)C)NC(=O)[C@H](CCC(=O)O)NC(=O)[C@H](CCC(=O)O)NC(=O)[C@@H]1CCCN1C(=O)[C@H](CO)NC(=O)[C@H](C)NC(=O)[C@H](CC(=O)O)NC(=O)[C@H](CCCCN)NC(=O)CNC(=O)[C@@H]1CCCN1C(=O)[C@H](C)NC(=O)[C@H](CCC(=O)O)NC(=O)[C@@H]1CCCN1C(=O)[C@H](CCCCN)NC(=O)[C@@H]1CCCN1)C(=O)N[C@@H](CCCNC(=N)N)C(=O)N[C@@H](CCCCN)C(=O)N[C@@H](Cc1ccc(O)cc1)C(=O)N[C@@H](CC(C)C)C(=O)N[C@@H](CC(N)=O)C(=O)N[C@@H](Cc1c[nH]c2ccccc12)C(=O)N[C@@H](CC(C)C)C(=O)N[C@H](C(=O)N[C@@H](CCCNC(=N)N)C(=O)N[C@@H](CCC(N)=O)C(=O)N[C@@H](CCCNC(=N)N)C(=O)N[C@@H](Cc1ccc(O)cc1)C(N)=O)[C@@H](C)O [Example 2] | 0.158 nM | −50% |
| CC(C)C[C@H](NC(=O)[C@H](CC(=O)O)NC(=O)[C@H](C)NC(=O)[C@H](Cc1ccc(O)cc1)NC(=O)[C@H](Cc1ccc(O)cc1)NC(=O)[C@H](CCCNC(=N)N)NC(=O)[C@H](CC(N)=O)NC(=O)[C@H](Cc1c[nH]c2ccccc12)NC(=O)[C@H](CCC(=O)O)NC(=O)[C@H](CCC(=O)O)NC(=O)[C@@H]1CCCN1C(=O)[C@H](CO)NC(=O)[C@H](C)NC(=O)[C@H](CC(=O)O)NC(=O)[C@H](CCCCN)NC(=O)CNC(=O)[C@@H]1CCCN1C(=O)[C@H](C)NC(=O)[C@H](CCC(=O)O)NC(=O)[C@@H]1CCCN1C(=O)[C@H](CCCCN)NC(=O)[C@@H]1CCCN1)C(=O)N[C@@H](CCCNC(=N)N)C(=O)N[C@@H](CCCCN)C(=O)N[C@@H](Cc1ccc(O)cc1)C(=O)N[C@@H](CC(C)C)C(=O)N[C@@H](CC(N)=O)C(=O)N[C@@H](Cc1c[nH]c2ccccc12)C(=O)N[C@@H](CC(C)C)C(=O)N[C@H](C(=O)N[C@@H](CCCNC(=N)N)C(=O)N[C@@H](CCC(N)=O)C(=O)N[C@@H](CCCNC(=N)N)C(=O)N[C@@H](Cc1ccc(O)cc1)C(N)=O)[C@@H](C)O [Example 4] | – | −83% |
| CC(C)C[C@H](NC(=O)[C@H](CO)NC(=O)[C@H](C)NC(=O)[C@H](Cc1ccc(O)cc1)NC(=O)[C@H](Cc1ccc(O)cc1)NC(=O)[C@H](CCCNC(=N)N)NC(=O)[C@H](CC(N)=O)NC(=O)[C@H](Cc1c[nH]c2ccccc12)NC(=O)[C@H](CCC(=O)O)NC(=O)[C@H](CCC(=O)O)NC(=O)[C@@H]1CCCN1C(=O)[C@H](CO)NC(=O)[C@H](C)NC(=O)[C@H](CC(=O)O)NC(=O)[C@H](CCCCN)NC(=O)CNC(=O)[C@@H]1CCCN1C(=O)[C@H](C)NC(=O)[C@H](CCC(=O)O)NC(=O)[C@@H]1CCCN1C(=O)[C@H](CCCCN)NC(=O)[C@@H]1CCCN1)C(=O)N[C@@H](CCCNC(=N)N)C(=O)N[C@@H](CCCCN)C(=O)N[C@@H](Cc1ccc(O)cc1)C(=O)N[C@@H](CC(C)C)C(=O)N[C@@H](CC(N)=O)C(=O)N[C@@H](Cc1c[nH]c2ccccc12)C(=O)N[C@@H](CC(C)C)C(=O)N[C@H](C(=O)N[C@@H](CCCNC(=N)N)C(=O)N[C@@H](CCC(N)=O)C(=O)N[C@@H](CCCNC(=N)N)C(=O)N[C@@H](Cc1ccc(O)cc1)C(N)=O)[C@@H](C)O [Example 6] | 0.0794 nM | −88% |
| CC(C)C[C@H](NC(=O)[C@H](CC(=O)O)NC(=O)[C@H](C)NC(=O)[C@H](Cc1ccc(O)cc1)NC(=O)[C@H](Cc1ccc(O)cc1)NC(=O)[C@H](CCCNC(=N)N)NC(=O)[C@H](CC(N)=O)NC(=O)[C@H](Cc1c[nH]c2ccccc12)NC(=O)[C@H](CCC(=O)O)NC(=O)[C@H](CCC(=O)O)NC(=O)[C@@H]1CCCN1C(=O)[C@H](CO)NC(=O)[C@H](C)NC(=O)[C@H](CC(=O)O)NC(=O)[C@H](CCCCN)NC(=O)CNC(=O)[C@@H]1CCCN1C(=O)[C@H](C)NC(=O)[C@H](CCC(=O)O)NC(=O)[C@@H]1CCCN1C(=O)[C@H](CCCCN)NC(=O)[C@@H]1CCCN1)C(=O)N[C@@H](CCCNC(=N)N)C(=O)N[C@@H](CCCCN)C(=O)N[C@@H](Cc1ccc(O)cc1)C(=O)N[C@@H](CC(C)C)C(=O)N[C@@H](CC(N)=O)C(=O)N[C@@H](Cc1c[nH]c2ccccc12)C(=O)N[C@H](C(=O)N[C@H](C(=O)N[C@@H](CCCNC(=N)N)C(=O)N[C@@H](CCC(N)=O)C(=O)N[C@@H](CCCNC(=N)N)C(=O)N[C@@H](Cc1ccc(O)cc1)C(N)=O)[C@@H](C)O)C(C)C [Example 8] | 0.02 nM | −74% |
| CC(C)C[C@H](NC(=O)[C@H](CO)NC(=O)[C@H](C)NC(=O)[C@H](Cc1ccc(O)cc1)NC(=O)[C@H](Cc1ccc(O)cc1)NC(=O)[C@H](CCCNC(=N)N)NC(=O)[C@H](CC(N)=O)NC(=O)[C@H](Cc1c[nH]c2ccccc12)NC(=O)[C@H](CCC(=O)O)NC(=O)[C@H](CCC(=O)O)NC(=O)[C@@H]1CCCN1C(=O)[C@H](CO)NC(=O)[C@H](C)NC(=O)[C@H](CC(=O)O)NC(=O)[C@H](CCCCN)NC(=O)CNC(=O)[C@@H]1CCCN1C(=O)[C@H](C)NC(=O)[C@H](CCC(=O)O)NC(=O)[C@@H]1CCCN1C(=O)[C@H](CCCCN)NC(=O)[C@@H]1CCCN1)C(=O)N[C@@H](CCCNC(=N)N)C(=O)N[C@@H](CCCCN)C(=O)N[C@@H](Cc1ccc(O)cc1)C(=O)N[C@@H](CC(C)C)C(=O)N[C@@H](CC(N)=O)C(=O)N[C@@H](Cc1c[nH]c2ccccc12)C(=O)N[C@H](C(=O)N[C@H](C(=O)N[C@@H](CCCNC(=N)N)C(=O)N[C@@H](CCC(N)=O)C(=O)N[C@@H](CCCNC(=N)N)C(=O)N[C@@H](Cc1ccc(O)cc1)C(N)=O)[C@@H](C)O)C(C)C [Example 10] | 0.0398 nM | −88% |
| CC(C)C[C@H](NC(=O)[C@H](CO)NC(=O)[C@H](C)NC(=O)[C@H](Cc1ccc(O)cc1)NC(=O)[C@H](Cc1ccc(O)cc1)NC(=O)[C@H](CCCNC(=N)N)NC(=O)[C@H](CC(N)=O)NC(=O)[C@H](CC(C)C)NC(=O)[C@H](CCC(=O)O)NC(=O)[C@H](CCC(=O)O)NC(=O)[C@@H]1CCCN1C(=O)[C@H](CO)NC(=O)[C@H](C)NC(=O)[C@H](CC(=O)O)NC(=O)[C@H](CCCCN)NC(=O)CNC(=O)[C@@H]1CCCN1C(=O)[C@H](C)NC(=O)[C@H](CCC(=O)O)NC(=O)[C@@H]1CCCN1C(=O)[C@H](CCCCN)NC(=O)[C@@H]1CCCN1)C(=O)N[C@@H](CCCNC(=N)N)C(=O)N[C@@H](CCCCN)C(=O)N[C@@H](Cc1ccc(O)cc1)C(=O)N[C@@H](CC(C)C)C(=O)N[C@@H](CC(N)=O)C(=O)N[C@@H](Cc1c[nH]c2ccccc12)C(=O)N[C@H](C(=O)N[C@H](C(=O)N[C@@H](CCCNC(=N)N)C(=O)N[C@@H](CCC(N)=O)C(=O)N[C@@H](CCCNC(=N)N)C(=O)N[C@@H](Cc1ccc(O)cc1)C(N)=O)[C@@H](C)O)C(C)C [Example 31] | 0.158 nM | −59% |
| CC[C@H](C)[C@H](N)C(=O)N[C@@H](CCCCN)C(=O)N1CCC[C@H]1C(=O)N1CCC[C@H]1C(=O)N[C@@H](Cc1ccc(O)cc1)C(=O)N1CCC[C@H]1C(=O)NCC(=O)N[C@@H](CS)C(=O)N[C@@H](CC(=O)O)C(=O)N[C@@H](C)C(=O)N[C@@H](CO)C(=O)N1CCC[C@H]1C(=O)N[C@@H](CCC(=O)O)C(=O)N[C@@H](CCC(=O)O)C(=O)N[C@@H](CCC(N)=O)C(=O)N[C@@H](CC(N)=O)C(=O)N[C@@H](CCCCN)C(=O)N[C@@H](Cc1ccc(O)cc1)C(=O)N[C@@H](Cc1ccc(O)cc1)C(=O)N[C@@H](C)C(=O)N[C@@H](CO)C(=O)N[C@@H](CC(C)C)C(=O)N[C@@H](CCCNC(=N)N)C(=O)N[C@@H](C)C(=O)N[C@@H](Cc1ccc(O)cc1)C(=O)N[C@@H](Cc1c[nH]c2ccccc12)C(=O)N[C@@H](CC(N)=O)C(=O)N[C@@H](CC(C)C)C(=O)N[C@H](C(=O)N[C@H](C(=O)N[C@@H](CCCNC(=N)N)C(=O)N[C@@H](CCC(N)=O)C(=O)N[C@@H](CCCNC(=N)N)C(=O)N[C@@H](Cc1ccc(O)cc1)C(N)=O)[C@@H](C)O)C(C)C [Peptide 8] | 0.501 nM | -19% |
| H-IKPEAPLSKQLEEEAVRYYASLRHYLNLVTRQRY-NH2 [Peptide 2] | 2.51 nM | -12% |
| H-PKPEAPGCDASPEEWNRYYASLRKYLNWVTRQNY-NH2 [Peptide 1] | 12.6 nM | 5% |
| H-PKPEAPGEDASPKEWNRYYASLRKYLNWVTRQRY-NH2 [Peptide 3] | 0.631 nM | -30% |
| H-PKPEAPLSKQLEEEAVRYYASLRHYLNLVTRQRY-NH2 [Peptide 21] | 2 nM | -2% |
| H-PQPESPEGNASPEDWACYHAAVRHYVNLITRQRY-NH2 [Peptide 18] | – | -17% |
| PEPEHPGCDASPEDQNKYHASLRKYLNWVTRQRY-NH2 [Peptide 10] | – | -21% |
| PKPEAPGCDASPEEWNRYYASLRKYLNWVTRQHY-NH2 [Peptide 14] | 6.31 nM | 24% |
| PKPVAPGCDASPAELNRQYSDLRNYWNLVTRQRY-NH2 [Peptide 15] | 1.26 nM | -17% |

— patent US20160108098A1, “THERAPEUTIC PEPTIDES” (GLAXOSMITHKLINE INTELLECTUAL PROPERTY DEVELOPMENT LIMITED, priority 2013, published 2016)
